The values below come from ChEMBL document CHEMBL1157058, “3D-QSAR studies on quinazoline antifolate thymidylate synthase inhibitors by CoMFA and CoMSIA models” (Eur J Med Chem, 2010).

What is called IC50 is the concentration needed to halve the response being measured.

This test addresses Thymidylate synthase (Homo sapiens, UniProt P04818). Nature of the test: Inhibition of thymidylate synthase.

Thymidylate synthase, sequence (P04818 whole entry): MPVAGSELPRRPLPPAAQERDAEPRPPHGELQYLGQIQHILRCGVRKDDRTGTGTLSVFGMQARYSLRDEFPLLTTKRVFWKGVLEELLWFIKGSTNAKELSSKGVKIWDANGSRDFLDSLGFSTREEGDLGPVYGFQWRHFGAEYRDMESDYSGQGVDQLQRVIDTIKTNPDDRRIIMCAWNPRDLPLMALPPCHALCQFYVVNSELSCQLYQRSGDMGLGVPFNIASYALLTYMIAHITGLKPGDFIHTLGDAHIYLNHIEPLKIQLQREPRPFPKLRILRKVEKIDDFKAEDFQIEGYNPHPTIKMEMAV

`Cc1nc2ccc(CNc3ccc(C(=O)N[C@@H](CCC(=O)O)C(=O)O)cc3F)cc2c(=O)[nH]1` gave an IC50 of 9.33 µM. That is a single-digit micromolar value. In turn, `C=CCN(Cc1ccc2nc(C)[nH]c(=O)c2c1)c1ccc(C(=O)N[C@@H](CCC(=O)O)C(=O)O)nc1` had an IC50 of 0.759 µM. `CCN(Cc1ccc2nc(C)[nH]c(=O)c2c1)c1ccc(C(=O)N[C@@H](CCC(=O)O)C(=O)O)s1`: the IC50 is 0.575 µM. The IC50 values of the last two compounds are within 1.5-fold of each other. `Cc1nc2ccc(CNc3cnc(C(=O)N[C@@H](CCC(=O)O)C(=O)O)s3)cc2c(=O)[nH]1` had an IC50 of 7.08 µM.
